Assay [1] concerns cultured DRG neurons. In words: Western blot of cultured DRG neurons treated with IFN-α, IFN-β, ISRIB or poly (I:C). Type of assay: cell-based, mouse. The method, then:
Primary cell culture of mouse DRG neurons and Western blot. Cultured primary DRG neurons were used to test the effects of IFN-α [(300 units (U)/mL] and IFN-β [(300 units (U)/mL] application. For these experiments, mice were anesthetized with isoflurane and killed by decapitation. Then DRGs, from all spinal levels, were dissected and placed in chilled Hanks balanced-salt solution (HBSS, Invitrogen) until processed. Dorsal root ganglia were digested in 1 mg/mL collagenase A (Roche, Mannheim, Germany) for 25 minutes at 37° C. then subsequently digested in a 1:1 mixture of 1 mg/mL collagenase D and papain (Roche) for 20 minutes at 37° C. After this step, dorsal root ganglia were then triturated in a 1:1 mixture of 1 mg/mL trypsin inhibitor (Roche) and bovine serum albumin (BioPharm Laboratories, Bluffdale, Utah), then filtered through a 70 μm cell strainer (Corning, N.Y.). Cells were pelleted then resuspended in DMEM/F12 with GlutaMAX (Thermo Fisher Scientific, MA) containing 10% fetal bovine serum (FBS; Thermo Fisher Scientific), 5 ng/mL NGF, 1% penicillin and streptomycin, and […] to inhibit mitosis of non-neuronal cells and were distributed evenly in a 6-well plate coated with poly-D-lysine (Becton Dickinson, NJ). DRG neurons were maintained in a 37° C. incubator containing 5% CO2 with a media change every other day. On day 6, DRG neurons were treated with either vehicle, IFN-α or IFN-β for 1, 3, 6 and 24 h. Following treatments, cells were rinsed with chilled 1×PBS buffer, harvested in 200 μL of RIPA lysis buffer (50 mM Tris, pH 7.4, 150 mM NaCl, 1 mM EDTA, pH 8.0, and 1% Triton X-100) containing protease and phosphatase inhibitors (Sigma-Aldrich), and then sonicated for 5 seconds. To clear debris, samples were centrifuged at 14,000 rpm for 15 min at 4° C. Ten to 15 μg of protein was loaded into each well and separated by a 10% SDS-PAGE gel. Proteins were transferred to a 0.45 PVDF membrane (Millipore, MA) at 30 V overnight at 4° C. Subsequently, membranes were blocked with 5% non-fat dry milk in 1× Tris buffer solution containing Tween 20 (TTBS) for at least 2 h. Membranes were washed 3 times for 10 minutes each (3×10) in 1×TTBS, then incubated with primary antibodies overnight at 4° C. The following day, membranes were washed 3×10 each then incubated with the corresponding secondary antibodies at room temperature for 1 h. After incubation, membranes were washed with 1×TTBS 3×10 each. Signals were detected using Immobilon Western Chemiluminescent HRP Substrate (Millipore) and then visualized with Bio-Rad ChemiDoc Touch. Membranes were stripped using Restore Western Blot Stripping buffer (Thermo Fisher Scientific) and reprobed with another antibody. Analysis was performed using Image lab 6.0.1 software for Mac (Bio-Rad, Hercules, Calif.).
(Immunoblotting shows a protein as a band on a membrane.)

Assay [2] deals with SNI mice. The assay is described as follows: conditioned place preference (CPP) after SNI. It is filed as in vivo, mouse. To be noted: 10 μg i.t. As to the method: Conditioned Place Preference. A previously published CPP protocol from the Walters laboratory protocol was used (Yang et al., 2014). The CPP box consisted of one black and one white chamber connected by a striped chamber. CPP was conducted in a dark room with a single low lumens light source (Maia 69E120-WH). The middle chamber of the CPP box was brightly illuminated to discourage mice from spending time in the middle chamber. […] On day 1 of testing (preconditioning), each mouse was permitted to explore the middle and black (but not white) chambers for 30 minutes. […] On the last day of CPP, each mouse was placed in the middle chamber with unrestricted access to all chambers and video-recorded for 10 min. Data are presented as the percent change in time spent in the drug-paired chambered compared to the control (vehicle or sham for each genotype or surgery). This was calculated by dividing each animal's time spent in the white box by the control average, multiplying by 100 and then subtracting 100.
(§1) Surgery. Spared nerve injury (SNI) was performed by the ligation and cutting of the tibial and peroneal branches of the left sciatic nerve trifurcation, leaving the sural branch intact as previously described (Decosterd and Woolf, 2000). Sham surgeries were performed the same way but without cutting the nerve. Mice were allowed to recover for 2 weeks following surgery.

For assay [3], the system named is SNI mice. The assay is described as follows: mechanical withdrawal threshold (von Frey) after SNI. Type of assay: in vivo, mouse. To be noted: WT and 4EKI, 10 μg i.t., 2 hours after injection on each CPP conditioning day. The method, then:
as §1
Mechanical withdrawal threshold. Tactile sensitivity was measured by probing the left outer surface of the left hindpaw with a series of calibrated von Frey filaments. Mechanical withdrawal thresholds were assessed in all animals before (baseline) and after (2 weeks) surgery to confirm neuropathy. Withdrawal thresholds were calculated using the up-down method (Chaplan et al., 1994).

Assay [4] concerns paclitaxel-treated mice. The assay is described as follows: mechanical paw withdrawal threshold (von Frey) in paclitaxel-induced CIPN. It is filed as in vivo, mouse. To be noted: intrathecal 10 μg, paclitaxel-induced pain.
Assay [5] has as its system cultured mouse DRG neurons. The assay is described as follows: microelectrode array (MEA) recordings of cultured DRG neurons exposed to IL-6. Type of assay: cell-based. To be noted: IL-6 100 ng/ml, tomivosertib 25 nM co-treatment. The method, then:
Extracellular electrophysiology. Substrate-integrated microelectrode array (MEA) recordings were performed using PDL and laminin pre-treated 12-well MEA plates (Axion Biosystems, USA) and an Axion Maestro recording system. DRG sensory neurons were dissected, dissociated, and seeded as previously described (Moy et al., 2017). […] Cultures were maintained at 37° C., 5% CO2, and ≥90% humidity throughout the recordings. Briefly, 30 min baseline recordings were carried out following a 30 min acclimation period. […] Recordings were then collected continuously for 3 hours. […] Online and offline MEA data analysis was performed using Axion's AxIS, NeuralMetrics Tools, and NeuroExplorer (NeuroExplorer, USA). Physiologically relevant extracellular action potentials were defined as previously described^29.

For assay [6], the system named is DRG neurons. The assay is described as follows: whole-cell patch clamp of cultured DRG neurons treated with IL-6 and eFT508. Type of assay: cell-based, mouse. As to the method: Phosphorylation of the 5′ cap-binding protein eIF4E by MAPK interacting kinases MNK1/2 is important for nociceptor sensitization and the development of chronic pain. IL-6 induced DRG nociceptor excitability is attenuated in mice lacking eIF4E phosphorylation, in MNK1/2^−/− mice and by the nonselective MNK1/2 inhibitor cercosporamide. […] Dorsal root ganglion (DRG) neurons were cultured from male and female ICR mice, 4-7 weeks old. […] Whole-cell patch clamp recordings were done on small diameter neurons (20-30 pF) to measure membrane excitability in response to ramp depolarization. […] These findings are consistent with a model wherein MNK-eIF4E signaling controls the translation of signaling factors that regulate T-type VGCCs in response to IL-6 treatment.

In assay [7] the test system is eIF4E. In words: immunocytochemistry of p-eIF4E in cultured DRG neurons. It is filed as cell-based, mouse. The following applies: 300 U/mL, one-hour stimulation. The method, then:
Immunofluorescence. For primary neuronal cultures, DRG neurons were harvested and cultured for 6 days according to the protocol described above with the exception that cells were distributed evenly on poly-D-lysine-coated 8-well chamber slide with removable wells (cat #12-565-8, Fisher Scientific). After treatments, cells were fixed in ice-cold 10% formalin in 1×PBS for 1 h and processed for immunocytochemistry (ICC). Cells were washed with 1×PBS and permeabilized in 1×PBS containing 10% heat-inactivated normal goat serum (NGS; Atlanta Biologicals, Atlanta, Ga.) and 0.02% Triton X-100 (Sigma) in 1×PBS for 30 min and then blocked in 10% NGS in 1×PBS for 2 h. […] Images were taken using an Olympus FluoView 1200 confocal microscope and analyzed with FIJI for Mac OS X. Images shown are representative of samples taken from 3 separate wells and presented as projections of Z stacks. Using ImageJ, the corrected total cell fluorescence (CTCF) was calculated to determine the intensity of the signal between experimental groups. To do so, the integrated density and the area, as well as the background noise was measured and the CTCF calculated as equal to: the integrated density −(area of selected cell×mean fluorescence of background readings). CTCF values from all experimental treatment groups were normalized to vehicle groups and expressed as normalized CTCF.

In assay [8] the test system is mice. In words: thermal latency (Hargreaves) after type I IFN or poly (I:C). To be noted: i.pl. 300 U/25 μL. It is filed as in vivo, mouse. As to the method: (§2) Behavior. Mice were housed on 12-hour light/dark cycles with food and water available ad libitum. Mice were randomized to groups from multiple cages to avoid using mice from experimental groups that were cohabitating. Sample size was estimated by performing a power calculation using G*Power (version 3.1.9.2). With 80% power and an expectation of d=2.2 effect size in behavioral experiments, and a set to 0.05, the sample size required was calculated as n=6 per group. The inventors therefore sought to have at least n=6 sample in all behavioral experiments. SD (set at 0.3) for the power calculation was based on previously published mechanical threshold data from the inventors' lab (Moy et al., 2017). Animals were habituated for 1 hour to clear acrylic behavioral chambers before beginning the experiment. For intraplantar injections, drugs were injected in a total volume of 25 μL through a 30-gauge needle. For intraperitoneal injections, drugs were administered in a volume of 100 μL Mechanical paw withdrawal thresholds in mice were measured using the up-down method (Chaplan et al., 1994) with calibrated von Frey filaments (Stoelting Company, WoodDale, Ill.). Thermal latency was measured using a Hargreaves device (IITC Life Science) (Hargreaves et al., 1988) with heated glass settings of 29° C., 40% active laser power, and 20 sec cutoff were used. The experimenter was blinded to the genotype of the mice and the drug condition in all experiments.

Assay [9] deals with mice. In words: mechanical paw withdrawal threshold (von Frey) after type I IFN or poly (I:C). Type of assay: in vivo, mouse. The following applies: i.pl. 300 U/25 μL. As to the method:
as §2

Entries after “also recorded” stand apart in the source; their conditions may differ.

Take `O=C(COc1ccc(Cl)cc1)NC1CCC(NC(=O)COc2ccc(Cl)cc2)CC1` (stereo not shown) [ISRIB]: in assay [1] (ISRIB 200 nM), the “PKR phosphorylation after 24 h IFN-α (300 U/mL) in the presence of ISRIB” value is recorded as “no changes” and the “components of the signaling pathways activated after IFN-α or IFN-β application” value is on record as “did not modulate”.
As for `Clc1cccc(Cl)c1N=C1NCCN1` [clonidine], the “time spent in the drug-paired chamber vs 4EKI sham” value in [2] (4EKI SNI mice) is recorded as “no significant difference”. For the same molecule, the “more time in the clonidine-paired chamber vs WT sham” value in assay [2] (WT SNI female mice) is reported as about 30%. In addition, the mechanical hypersensitivity result in assay [3] is listed as “significantly attenuated mechanical hypersensitivity”.
Consider `COc1ccc(-c2ccc3c(N4CCOC[C@@H]4C)nc(N4CCOC[C@@H]4C)nc3n2)cc1CO` [AZD8055], for which, in assay [4], the “mechanical allodynia / hypersensitivity after first injection” value is listed as “robust reduction in mechanical hypersensitivity; also recorded: relieves mechanical allodynia” and the “mechanical allodynia / hypersensitivity after second (subsequent) injection” value was “the magnitude of this effect was decreased; also recorded: no significant effects were observed”.
“IL-6: interleukin-6, a cytokine that evokes pain”: in assay [5], the spontaneous firing result is listed as “enhanced spontaneous firing”. Moreover, the “amplitudes of T-type voltage-gated calcium channels (VGCCs)” value in [6] (IL-6, eFT508 co-treatment) was “increased”. The “latency to the first action potential in the ramp protocol” value in assay [6] (IL-6, eFT508 pretreatment) is on record as “lower”. For the same molecule, the “action potential firing in response to ramp depolarization” value in assay [6] (one hr IL-6, eFT508 pretreatment followed by IL-6) is on record as “increased action potential firing”.

B1: IFN-β: Recombinant mouse IFN-β protein (protein, UniProt P01575 22-182, looked up)
Interferon beta: INYKQLQLQERTNIRKCQELLEQLNGKINLTYRADFKIPMEMTEKMQKSYTAFAIQEMLQNVFLVFRNNFSSTGWNETIVVRLLDELHQQTVFLKTVLEEKQEERLTWEMSSTALHLKSYYWRVQRYLKLMKYNSYAWMVVRAEIFRNFLIIRRLTRNFQN
Take B1: in [1] (300 U/mL), the AKT phosphorylation result is “stimulated AKT phosphorylation”; the “ERK and eIF4E phosphorylation” value is recorded as “increase”; the “downstream JAK/STAT signaling pathways” value is recorded as “rapidly activated”. The “BiP expression or signaling via PKR and downstream p-eIF2α” value in assay [1] (300 U/mL, 1-6 h) is given as “did not modify”. Moreover, in [1] (300 U/mL, long exposure (24 h)), the PKR phosphorylation entry is given as “did not modify”. For the same molecule, the “mTOR or ribosomal protein S6 phosphorylation” value in assay [1] (300 U/mL, time course of 6 h) is “did not observe any changes”. In assay [7], the “phosphorylation of eIF4E (ICC)” value is listed as “stimulated phosphorylation of eIF4E”. For the same molecule, the thermal hypersensitivity result in assay [8] (female mice) is reported as “no significant changes”. In [8] (male mice), the “paw withdrawal latency to thermal stimulation” value was “no significant changes”. For the same molecule, the “hind paw mechanical hypersensitivity” value in assay [9] (female mice) is reported as “increased hind paw mechanical hypersensitivity”. Also, the “mechanical hypersensitivity to von Frey filament stimulation” value in assay [9] (male mice) is recorded as “rapid mechanical hypersensitivity”.
